From patent US20200347033A1, “MODULATORS OF THE INTEGRATED STRESS PATHWAY” (Calico Life Sciences LLC, priority 2017, published 2020)

System: HEK293T cells carrying the ATF4 luciferase reporter
Assay: ATF4-Luc assay (in vitro model of vanishing white matter disease)
Assay type: cell-based, human
Conditions: Homo sapiens, HEK-293T; HEK293T cells with ATF4 5'-UTR firefly luciferase reporter; 1 μg/mL tunicamycin; 7 hours; One Glo luminescence
Protocol: In order to test exemplary compounds of the invention in a cellular context, a stable VWMD cell line was first constructed. The ATF4 reporter was prepared by fusing the human full-length ATF4 5′-UTR (NCBI Accession No. BC022088.2) in front of the firefly luciferase (FLuc) coding sequence lacking the initiator methionine as described in Sidrauski et al (eLife 2013). The construct was used to produce recombinant retroviruses using standard methods and the resulting viral supernatant was used to transduce HEK293T cells, which were then subsequently selected with puromycin to generate a stable cell line.
HEK293T cells carrying the ATF4 luciferase reporter were plated on polylysine coated 384-well plates (Greiner Bio-one) at 30,000 cells per well. Cells were treated the next day with 1 μg/mL tunicamycin and 200 nM of a compound of Formula (I) for 7 hours. Luminescence was measured using One Glo (Promega) as specified by the manufacturer. Cells were maintained in DMEM with L-glutamine supplemented with 10% heat-inactivated FBS (Gibco) and Antibiotic-Antimycotic solution (Gibco).
Table 2 below summarizes the EC50 data obtained using the ATF4-Luc assay for exemplary compounds of the invention.

| SMILES | EC50 |
| --- | --- |
| O=C(N[C@H]1CC[C@H](N2CCN(c3ccc(C(F)F)cn3)C2=O)CC1)c1ccc(Cl)c(F)c1 [Compound 123, 4-chloro-N-[(1r,4r)-4-{3-[5-(difluoromethyl)pyridin-2-yl]-2-oxoimidazolidin-1-yl}cyclohexyl]-3-fluorobenzamide] | > 2000 nM |
| O=C(N[C@H]1CC[C@H](N2CCN(c3ccc(C(F)F)cn3)C2=O)CC1)c1ccc(OC(F)(F)F)cn1 [Compound 124, N-[(1r,4r)-4-{3-[5-(difluoromethyl)pyridin-2-yl]-2-oxoimidazolidin-1-yl}cyclohexyl]-5-(trifluoromethoxy)pyridine-2-carboxamide] | > 2000 nM |
| O=C(COc1ccc(C(F)(F)F)nc1)N[C@H]1CC[C@H](N2CCN(c3ccc(C(F)F)cn3)C2=O)CC1 [Compound 125, N-[(1r,4r)-4-{3-[5-(difluoromethyl)pyridin-2-yl]-2-oxoimidazolidin-1-yl}cyclohexyl]-2-{[6-(trifluoromethyl)pyridin-3-yl]oxy}acetamide] | 50 to 250 nM |
| O=C(COc1ccc(F)c(F)c1)N[C@H]1CC[C@H](N2CCN(c3ccc(C(F)F)cn3)C2=O)CC1 [Compound 126, N-[(1r,4r)-4-{3-[5-(difluoromethyl)pyridin-2-yl]-2-oxoimidazolidin-1-yl}cyclohexyl]-2-(3,4-difluorophenoxy)acetamide] | < 50 nM |
| O=C(COc1ccc(OC(F)(F)F)cc1)N[C@H]1CC[C@H](N2CCN(c3ccc(C(F)F)cn3)C2=O)CC1 [Compound 127, N-[(1r,4r)-4-{3-[5-(difluoromethyl)pyridin-2-yl]-2-oxoimidazolidin-1-yl}cyclohexyl]-2-[4-(trifluoromethoxy)phenoxy]acetamide] | 250 to 1000 nM |
| O=C(COc1ccc2c(c1)OC(F)(F)O2)N[C@H]1CC[C@H](N2CCN(c3ccc(C(F)F)cn3)C2=O)CC1 [Compound 128, 2-[(2,2-difluoro-2H-1,3-benzodioxol-5-yl)oxy]-N-[(1r,4r)-4-{3-[5-(difluoromethyl)pyridin-2-yl]-2-oxoimidazolidin-1-yl}cyclohexyl]acetamide] | 50 to 250 nM |
| O=C(N[C@H]1CC[C@H](N2CCN(c3ccc(C(F)F)cn3)C2=O)CC1)OCc1ccccc1 [Compound 129, benzyl [(1r,4r)-4-{3-[5-(difluoromethyl)pyridin-2-yl]-2-oxoimidazolidin-1-yl}cyclohexyl]carbamate] | > 2000 nM |
| O=C(COc1ccc(Cl)c(F)c1)N[C@H]1CC[C@H](N2CCN(c3ccccn3)C2=O)CC1 [Compound 130, 2-(4-chloro-3-fluorophenoxy)-N-{(1r,4r)-4-[2-oxo-3-(pyridin-2-yl)imidazolidin-1-yl]cyclohexyl}acetamide] | < 50 nM |
| Cc1csc(N2CCN([C@H]3CC[C@H](NC(=O)COc4ccc(Cl)c(F)c4)CC3)C2=O)n1 [Compound 131, 2-(4-chloro-3-fluorophenoxy)-N-{(1r,4r)-4-[3-(4-methyl-1,3-thiazol-2-yl)-2-oxoimidazolidin-1-yl]cyclohexyl}acetamide] | 250 to 1000 nM |
| O=C(COc1ccc(Cl)c(F)c1)N[C@H]1CC[C@H](N2CCN(c3ccc(C(F)F)cn3)C2=O)CC1 [Compound 133, 2-(4-chloro-3-fluorophenoxy)-N-[(1r,4r)-4-{3-[5-(difluoromethyl)pyridin-2-yl]-2-oxoimidazolidin-1-yl}cyclohexyl]acetamide] | < 50 nM |
| O=C(COc1ccc(Cl)c(F)c1)N[C@H]1CC[C@H](N2CCN(c3ccc4c(c3)OC(F)(F)O4)C2=O)CC1 [Compound 134, 2-(4-chloro-3-fluorophenoxy)-N-{(1r,4r)-4-[3-(2,2-difluoro-2H-1,3-benzodioxol-5-yl)-2-oxoimidazolidin-1-yl]cyclohexyl}acetamide] | < 50 nM |
| O=C(COc1ccc(Cl)c(F)c1)N[C@H]1CC[C@H](N2CCN(c3ccc(Cl)cn3)C2=O)CC1 [Compound 135, 2-(4-chloro-3-fluorophenoxy)-N-{(1r,4r)-4-[3-(5-chloropyridin-2-yl)-2-oxoimidazolidin-1-yl]cyclohexyl}acetamide] | < 50 nM |
| O=C(COc1ccc(Cl)c(F)c1)N[C@H]1CC[C@H](N2CCN(c3ccc(OC(F)(F)F)nc3)C2=O)CC1 [Compound 136, 2-(4-chloro-3-fluorophenoxy)-N-[(1r,4r)-4-{2-oxo-3-[6-(trifluoromethoxy)pyridin-3-yl]imidazolidin-1-yl}cyclohexyl]acetamide] | > 2000 nM |
| O=C(COc1ccc(Cl)c(F)c1)NC12CC(N3CNc4cc(F)c(F)cc4C3=O)(C1)C2 [Compound 137, 2-(4-chloro-3-fluorophenoxy)-N-[3-(6,7-difluoro-4-oxo-1,4-dihydroquinazolin-3(2H)-yl)bicyclo[1.1.1]pentan-1-yl]acetamide] | 250 to 1000 nM |
| O=C(COc1ccc(Cl)c(F)c1)NC12CC(n3c(=O)c4ccc(Cl)cc4n(CCO)c3=O)(C1)C2 [Compound 138, 2-(4-chloro-3-fluorophenoxy)-N-{3-[7-chloro-1-(2-hydroxyethyl)-2,4-dioxo-1,4-dihydroquinazolin-3(2H)-yl]bicyclo[1.1.1]pentan-1-yl}acetamide] | 50 to 250 nM |
| O=c1[nH]c2cc(Cl)ccc2c(=O)n1C12CC(NCCOc3ccc(Cl)c(F)c3)(C1)C2 [Compound 139, 7-chloro-3-(3-{[2-(4-chloro-3-fluorophenoxy)ethyl]amino}bicyclo[1.1.1]pentan-1-yl)quinazoline-2,4(1H,3H)-dione] | > 2000 nM |
| O=C(COc1ccc(Cl)c(F)c1)NC12CC(n3c(=O)[nH]c4cc(Cl)ccc4c3=O)(C1)C2 [Compound 140, N-[3-(7-chloro-2,4-dioxo-1,4-dihydroquinazolin-3(2H)-yl)bicyclo[1.1.1]pentan-1-yl]-2-(4-chloro-3-fluorophenoxy)acetamide] | 250 to 1000 nM |
| O=C(COc1ccc(Cl)c(F)c1)N[C@H]1CC[C@H](N2CCN(c3ccc(OC(F)(F)F)cn3)C2=O)CC1 [Compound 141, 2-(4-chloro-3-fluorophenoxy)-N-[(1r,4r)-4-{2-oxo-3-[5-(trifluoromethoxy)pyridin-2-yl]imidazolidin-1-yl}cyclohexyl]acetamide] | 50 to 250 nM |
| O=C(COc1ccc(Cl)c(F)c1)N[C@H]1CC[C@H](N2CCN(c3ccc(C(F)F)nc3)C2=O)CC1 [Compound 142, 2-(4-chloro-3-fluorophenoxy)-N-[(1r,4r)-4-{3-[6-(difluoromethyl)pyridin-3-yl]-2-oxoimidazolidin-1-yl}cyclohexyl]acetamide] | < 50 nM |
| O=C(COc1ccc(Cl)c(F)c1)N[C@H]1CC[C@H](N2CCN(c3ccc(C(F)(F)F)nc3)C2=O)CC1 [Compound 143, 2-(4-chloro-3-fluorophenoxy)-N-[(1r,4r)-4-{2-oxo-3-[6-(trifluoromethyl)pyridin-3-yl]imidazolidin-1-yl}cyclohexyl]acetamide] | < 50 nM |
| O=C(COc1ccc(Cl)c(F)c1)N[C@H]1CC[C@H](N2CCN(c3ccc(Cl)cc3)C2=O)CC1 [Compound 144, 2-(4-chloro-3-fluorophenoxy)-N-{(1r,4r)-4-[3-(4-chlorophenyl)-2-oxoimidazolidin-1-yl]cyclohexyl}acetamide] | < 50 nM |
| O=C(COc1ccc(Cl)c(F)c1)NC12CC(N3CCN(c4ccc(Cl)cn4)C3=O)(C1)C2 [Compound 145, 2-(4-chloro-3-fluorophenoxy)-N-{3-[3-(5-chloropyridin-2-yl)-2-oxoimidazolidin-1-yl]bicyclo[1.1.1]pentan-1-yl}acetamide] | < 50 nM |
| O=C(COc1ccc(Cl)c(F)c1)NC12CCC(N3CCN(c4ccc(Cl)c(F)c4)C3=O)(CC1)CC2O (stereo not shown) [Compound 146, 2-(4-chloro-3-fluorophenoxy)-N-{4-[3-(4-chloro-3-fluorophenyl)-2-oxoimidazolidin-1-yl]-2-hydroxybicyclo[2.2.2]octan-1-yl}acetamide] | < 50 nM |
| O=C(COc1ccc(Cl)c(F)c1)NC12CC(N3CCN(c4ccc(C(F)F)cn4)C3=O)(C1)C2 [Compound 147, 2-(4-chloro-3-fluorophenoxy)-N-(3-{3-[5-(difluoromethyl)pyridin-2-yl]-2-oxoimidazolidin-1-yl}bicyclo[1.1.1]pentan-1-yl)acetamide] | < 50 nM |
| O=C(COc1ccc(Cl)c(F)c1)NC12CC(N3C(=O)OC(c4ccc(F)cc4)C3=O)(C1)C2 (stereo not shown) [Compound 158, 2-(4-chloro-3-fluorophenoxy)-N-{3-[5-(4-fluorophenyl)-2,4-dioxo-,3-oxazolidin-3-yl]bicyclo[1.1.1]pentan-1-yl}acetamide] | 1000 to 2000 nM |
| O=C(COc1ccc(Cl)c(F)c1)NC12CC(N3CC(c4ccc(Cl)c(F)c4)CC3=O)(C1)C2 (stereo not shown) [Compound 159, 2-(4-chloro-3-fluorophenoxy)-N-{3-[4-(4-chloro-3-fluorophenyl)-2-oxopyrrolidin-1-yl]bicyclo[1.1.1]pentan-1-yl}acetamide] | < 50 nM |
| O=C(COc1ccc(Cl)c(F)c1)NC12CC(n3ccn(-c4ccc(Cl)cc4)c3=O)(C1)C2 [Compound 160, 2-(4-chloro-3-fluorophenoxy)-N-{3-[3-(4-chlorophenyl)-2-oxo-2,3-dihydro-1H-imidazol-1-yl]bicyclo[1.1.1]pentan-1-yl}acetamide] | < 50 nM |
| O=C(COc1ccc(Cl)c(F)c1)NC12CCC(N3CC(c4ccc(Cl)cc4)OC3=O)(CC1)CC2O (stereo not shown) [Compound 162, 2-(4-chloro-3-fluorophenoxy)-N-{4-[5-(4-chlorophenyl)-2-oxo-1,3-oxazolidin-3-yl]-2-hydroxybicyclo[2.2.2]octan-1-yl}acetamide] | 50 to 250 nM |
